“And” between values parts separate entries of the source, which are not always exact repeats. Identical values can stand only once. “Also recorded” adds a separate entry of the source.
Key:
[1] = test system: patients with symptomatic non-obstructive HCM (nHCM) or HCM with MVO; experiment: Phase 2 trial (Example 2): patient-reported outcomes (KCCQ-CSS, SAQ-AF); type: in vivo, human
Excerpt: Health Status and Health-related Quality of Life: when available, patients completed patient-reported outcome (PRO) questionnaires prior to dosing at Day 1, at Week 6, at Week 10 and at Week 12. The following instruments were be used at these visits: by Short Form 36 physical function sub-scale (SF-36-PFS), Kansas City Cardiomyopathy Questionnaire Clinical Summary Score (KCCQ-CSS), SAQ7, PGI-C (Week 10 only), and CGI (Week 10 only).
The exploratory health status and health-related quality of life endpoints included but were not limited to change from baseline to Week 10 and a slope of change from baseline to Week 10 in: (i) T-scores for PROMIS Dyspnea Severity Short Form 10a, PROMIS Dyspnea Severity Short Form 10a with two additional items, PROMIS Fatigue Short Form 7a, and PROMIS Physical Function Short Form 8b; (ii) Norm-based T scores for SF-36 Physical Functioning subscale; (iii) Individual responses to the HCM Global Impression of Status questionnaire at baseline, Week 6, and Week 10; (iv) Individual responses to the HCM Global Impression of Change questionnaire at Week 6 and Week 10; (v) Change in KCCQ score from baseline to Week 10; and (vi) Change in SAQ7 score from baseline to Week 10.

healthy adults = experiment: Phase 1 pharmacodynamics by echocardiography (LVEF and other parameters, PK/PD); type: in vivo, human
Method: Echocardiography. For PD assessments of LVEF, echocardiograms for the SAD and MAD cohorts were interpreted by the echocardiography core laboratory and used for all data analysis and dose level review decisions while immediate local interpretation of the echocardiograms was performed for safety monitoring. […] Echocardiograms on day 3 (48 h after dosing) were obtained only if the 24 h LVEF had not returned to near or above baseline, as determined by the investigator. In the MAD cohorts, echocardiograms were obtained on day −1, pre-dose on day 1, and at 1.5 h post dose on days 2, 4, and 9, and at 1.5, 24, and 72 h post dose on day 14 (for the 5-mg and 10-mg cohorts) or on day 17 (for the 7.5-mg cohort). Echocardiograms were obtained 3 days after the last dose (on day 17 or 20) only if the participant's prior LVEF was not near or above baseline, as determined by the investigator.
All participants who received ≥1 dose of study drug and had ≥1 pre-dose and ≥1 post-dose echocardiographic measurement were included in the PD analysis set. […] Descriptive statistics of the echocardiographic parameters were generated using SAS® Version 9.3 or higher.
Dose-response analysis was performed using analysis of covariance (ANCOVA) to identify the least-squares mean difference (aficamten minus placebo). To analyze the impact of drug dose on echocardiographic parameters in the SAD and MAD cohorts, an inferential analysis was conducted on the PD analysis set using linear mixed models for repeated-measures analysis of covariance (ANCOVA). The ANCOVA used baseline value as a covariate, included treatment, time-point, and time-point-by-treatment interaction as fixed effects, and change from baseline as the dependent variable. The unstructured variance-covariance structure was used, and the model accounted for the time-point repeated measures. The ANCOVA analysis was conducted separately for each study part and for each PD parameter. The least-squares means, the difference in least squares means (active minus placebo), and the associated 2-sided 95% CIs were presented for each comparison.
Analyses of concentration ‘bin’ and exposure-response were also performed using ANCOVA. SAS® PROC MIXED was used for all comparative analyses. […] A concentration bin ANCOVA was conducted using linear mixed models for repeated-measures analyses with concentration bin group as a fixed effect, baseline PD parameters as a covariate, change from baseline as the dependent variable, and a random intercept to adjust for the repeated measures. The unstructured variance-covariance structure was used. […] The ANCOVA compared the change in PD parameters between each bin versus the pooled placebo group.
The least-squares means, the difference in least squares means (bin group minus placebo), and the associated 2-sided 95% CIs were presented for each comparison. The ANCOVA analysis was conducted separately for each study part. For all time-points at which both PK data and PD measures were available, the time-points were pooled for the analysis. […] From least to greatest, the data were then divided into 5 groups of observations (‘bins’), each consisting of 20% of the data points. Each bin was treated as a separate group.
The above analysis was then repeated using concentration as a continuous variable to estimate the exposure-response trend. Both a random intercept effect and a random concentration effect were added to the ANCOVA. The estimate of the concentration slope, with corresponding 2-sided 95% CIs, and the ANCOVA analyses were presented for each study part.
For all time-points at which both PK data and PD measures were available, the time points were pooled for the analysis. A nominal significance level of 5% was used for statistical comparisons, without adjustment for multiplicity.

[2] = SAD 50 mg (n = 11), change from baseline at […], mean

CCc1nc(-c2ccc3c(c2)CC[C@H]3NC(=O)c2cnn(C)c2)no1 [aficamten, (R)—N-(5-(5-ethyl-1,2,4-oxadiazol-3-yl)-2,3-dihydro-1H-inden-1-yl)-1-methyl-1H-pyrazole-4-carboxamide]
patients improving KCCQ-CSS by ≥5 points ([1]; 21 patients, week 10, interim): 54% | improvement in KCCQ-CSS, median (IQR) ([1]; from baseline median (IQR) 69.8 (56.8, 83.9), interim): 7.3 (−1.0, 18.8) points | patients with clinical reduction in symptom burden (KCCQ-CSS) ([1]; week 10, second interim): 58% | improvement in mean KCCQ-CSS ([1]; week 10, second interim, p<0.0001): 10.6 points | relationship of LVEF to plasma concentration of aficamten (healthy adults; MAD cohorts, bin concentration or linear regression analysis): did not reach statistical significance | suppression of LVEF versus plasma concentration (healthy adults; MAD cohorts, plasma aficamten concentrations of ≤180 ng/ml): minimal suppression of LVEF | participants with decreases in LVEF to <50% (healthy adults; Phase 1, rapidly reversible upon study drug discontinuation): Three participants | E (peak E wave velocity) (healthy adults; SAD 50 mg (n = 11), […], mean): 64 cm/s | A (peak A wave velocity), CFB (healthy adults; [2]): 2.5 cm/s | E (peak E wave velocity), CFB (healthy adults; [2]): -2.7 cm/s | Heart rate, CFB (healthy adults; [2]): 0.5 bpm | IVCT, CFB (healthy adults; [2]): 0.4 ms | IVRT, CFB (healthy adults; [2]): 0.5 ms | LAV, CFB (healthy adults; [2]): 0 mL | LV EDV, CFB (healthy adults; [2]): 6.6 mL | LV ESV, CFB (healthy adults; [2]): 8.1 mL | LV ET, CFB (healthy adults; [2]): 1.9 ms | LV SV, CFB (healthy adults; [2]): -6.2 mL | LVEF, CFB (healthy adults; [2]): −5.8% | e′ lateral, CFB (healthy adults; [2]): -1.3 cm/s | time after dosing at which LVEF <50% was noted (healthy adults; SAD 50 mg and 75 mg, 3 participants): approximately 1.5 h | participants with absolute reduction in LVEF of ≥5% from baseline (healthy adults; SAD 1-mg cohort): no participants | participants with absolute reduction in LVEF of ≥5% from baseline (healthy adults; SAD 10-mg cohort): no participants | participants with absolute reduction in LVEF of ≥5% from baseline (healthy adults; SAD 25-mg cohort): no participants | participants with reduction in LVEF to <50% (healthy adults; SAD 50-mg cohort, 2 of 11, core laboratory): 18% | reduction in LVEF from baseline, least-squares mean difference (healthy adults; SAD 50-mg cohort, […] post dose, p=0.0001): 5.5% | LVEF of the 2 participants with LVEF <50% (healthy adults; SAD 50-mg cohort, per core laboratory assessment): 48.2% and 45.5% | participants with reduction in LVEF to <50% (healthy adults; SAD 75-mg cohort, 1 of 1): 100% | participants with LVEF <45% (healthy adults; SAD cohorts, core laboratory): Only the participant in the 75-mg cohort | relationship of LVEF to plasma concentration of aficamten (healthy adults; SAD cohorts, highest bin 122 to 524 ng/ml p<0.0001, concentration-slope p=0.0027): statistically significant decrease in LVEF; also recorded: trend toward a decrease in LVEF | reduction in LVEF to <50% (healthy adults; any of the MAD cohorts, core laboratory): not observed | time for reversal of decreases in LVEF to values <50% (healthy adults; following single doses): ≤ 6 h | time for LVEF to return to baseline (healthy adults; participants whose LVEF fell below 50%): ≤ 24 h | LVEF after reduction (healthy adults; single dose of 75 mg, 1 participant): 34.1% | reduction in LVEF (healthy adults; single participant, SAD 75 mg, […] post dose): 31.5%

Reference: patent US20240091203A1, “METHODS FOR TREATING NON-OBSTRUCTIVE HYPERTROPHIC CARDIOMYOPATHY” (Cytokinetics, Incorporated, priority 2022, published 2024)
